Patent EP4603105A1, “PHARMACEUTICAL COMPOSITION CONTAINING CYCLIC COMPOUND HAVING SELECTIVE KRAS INHIBITORY EFFECT AGAINST HRAS AND NRAS” (CHUGAI SEIYAKU KABUSHIKI KAISHA, priority 2022, dated 2024)
pIC50, pKd: −log10 of the molar value. Read-outs that look alike come from different tables or passages of the source.

Key:
[1] = target: GDP-bound KRAS wild-type protein (Homo sapiens, UniProt P01116); test: Binding to KRAS by surface plasmon resonance (SPR), dissociation constant KD
Method in brief: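 Biotinylated GDP-bound RAS was captured at about 100–300 RU. Running buffer: HBS pH 7.4, 10 mM MgCl2, 10 µM GDP, 1 mM DTT, 0.01% Tween 20, 4% DMSO.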

HRAS wild-type protein = HRAS wild-type protein (Homo sapiens, UniProt P01112); test: Binding to HRAS by surface plasmon resonance (SPR), KD and KD ratio to KRAS
Sequence of HRAS wild-type protein (P01112 whole entry): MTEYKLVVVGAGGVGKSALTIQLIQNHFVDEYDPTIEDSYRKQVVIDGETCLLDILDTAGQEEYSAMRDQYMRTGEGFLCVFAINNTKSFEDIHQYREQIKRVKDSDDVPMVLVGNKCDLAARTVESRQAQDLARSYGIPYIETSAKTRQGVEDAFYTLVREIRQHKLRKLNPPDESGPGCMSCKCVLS
Method in brief: (§1)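 SPR, 30°C: Avi-biotin RAS·GDP captured via Biotin CAPture (~100–300 RU); running buffer HBS pH 7.4, 1 mM DTT, 10 mM MgCl2, 0.01% Tween 20, 10 µM GDP, 4% DMSO. Single-cycle kinetics, 100 µL/min, 75 s injections; 1:1 model → KD.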

[2] = target: GDP-bound NRAS wild-type protein (Homo sapiens, UniProt P01111); test: Binding to NRAS by surface plasmon resonance (SPR), KD and KD ratio to KRAS
Sequence of GDP-bound NRAS wild-type protein (P01111 whole entry): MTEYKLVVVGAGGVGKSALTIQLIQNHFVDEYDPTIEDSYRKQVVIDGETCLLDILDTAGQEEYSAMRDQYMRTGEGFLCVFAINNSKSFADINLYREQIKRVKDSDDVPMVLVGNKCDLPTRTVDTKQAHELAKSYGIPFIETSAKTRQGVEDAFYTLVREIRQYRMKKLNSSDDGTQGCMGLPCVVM
Method in brief: as §1

[3] = tested on: human lung cancer strain NCI-H441; test: NCI-H441 cell proliferation inhibitory activity (CellTiter-Glo, 4 days); type: cell-based; details: read-out: NCl-H441 IC50
Method in brief: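 Proliferation was scored by […] measured after the reagent was added to cultures kept at 37°C in 5% carbon dioxide.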

[4] = ratio of KD for HRAS wild-type protein to KD for KRAS
[5] = ratio of KD for GDP-bound NRAS wild-type protein to KD for KRAS
[6] = Single Cycle Kinetics, 1:1 binding model
[7] = ratio of KD with respect to HRAS wild-type protein to KD with respect to KRAS
[8] = ratio of KD with respect to GDP-bound NRAS wild-type protein to KD with respect to KRAS
[9] = 50% proliferation inhibitory concentration, four days

Sequence of GDP-bound KRAS wild-type protein (P01116 1-188 isoform P01116-2): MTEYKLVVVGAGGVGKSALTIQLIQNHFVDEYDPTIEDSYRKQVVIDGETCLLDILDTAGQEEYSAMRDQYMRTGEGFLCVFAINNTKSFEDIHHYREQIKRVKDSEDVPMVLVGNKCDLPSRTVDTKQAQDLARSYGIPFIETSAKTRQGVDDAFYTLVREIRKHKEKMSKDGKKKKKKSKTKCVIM

| SMILES | pKd ([1]; Single Cycle Kinetics) | pIC50 ([3]; NCI-H441 cells, 4 days) | pKd ([1]; 1:1 binding model) | pKd [1, 6] | pIC50 [3, 9] | HRAS /KRAS (HRAS wild-type protein; [4]) | NRAS /KRAS [2, 5] | HRAS /KRAS (HRAS wild-type protein; [7]) | NRAS /KRAS [2, 8] |
| --- | --- | --- | --- | --- | --- | --- | --- | --- | --- |
| C#CC[C@H]1C(=O)N[C@@H]([C@@H](C)CC)C(=O)N(C2CC2)CC(=O)N(C)[C@H]2C/C=C\CCN(C2=O)[C@@H](Cc2ccc(C(F)(F)F)cc2)C(=O)N(C)CC(=O)N[C@@H](CCc2cc(F)c(C(F)(F)F)c(F)c2)C(=O)N2C[C@H](OCC)C[C@H]2C(=O)N(C)C2(CCC2)C(=O)N(C)[C@@H](C2CCCC2)C(=O)N(C)[C@H](C(=O)N(C)C)CC(=O)N1C [PP3244] | 10.00 | 8.72 |  |  |  | A (a compound having 10 or more and less than 20 is denoted as A) | A (a compound having 10 or more and less than 20 is denoted as A) |  |  |
| CCC[C@H]1C(=O)N[C@@H]([C@@H](C)CC)C(=O)N(C2CC2)CC(=O)N(C)[C@H]2C/C=C\CCN(C2=O)[C@@H](Cc2ccc(C)cc2)C(=O)N(C)CC(=O)N[C@@H](CCc2cc(F)c(C(F)(F)F)c(F)c2)C(=O)N2C[C@H](OCC)C[C@H]2C(=O)NC2(CC(C)(C)C2)C(=O)N(C)[C@@H](C(CC)CC)C(=O)N(C)[C@H](C(=O)N(C)C)CC(=O)N1C [PP2560] |  | 7.33 | 9.00 |  |  | A (a compound having 10 or more and less than 20 is denoted as A) | AA (a compound having 20 or more is denoted as AA) |  |  |
| CCO[C@@H]1C[C@H]2C(=O)NC3(CC(C)(C)C3)C(=O)N(C)[C@@H](C(CC)CC)C(=O)N(C)[C@H](C(=O)N(C)C)CC(=O)N(C)[C@@H](COC)C(=O)N[C@@H]([C@@H](C)CC)C(=O)N3CCC[C@H]3C(=O)N(C)[C@H]3C/C=C\CCN(C3=O)[C@@H](Cc3ccc(C(F)(F)F)cc3)C(=O)N(C)CC(=O)N[C@@H](CCc3ccc(Cl)c(Cl)c3)C(=O)N2C1 [PP2635] |  | 7.30 | 9.01 |  |  | A (a compound having 10 or more and less than 20 is denoted as A) | AA (a compound having 20 or more is denoted as AA) |  |  |
| CCO[C@@H]1C[C@H]2C(=O)NC3(CCC3)C(=O)N(C)[C@@H](C(CC)CC)C(=O)N(C)[C@H](C(=O)N3CCCC3)CC(=O)N(C)[C@@H](COC)C(=O)N[C@@H]([C@@H](C)CC)C(=O)N(C)CC(=O)N(C)[C@H]3C/C=C\CCN(C3=O)[C@@H](CC3CCCCC3)C(=O)N(C)CC(=O)N[C@@H](CCc3cc(F)c(C(F)(F)F)c(F)c3)C(=O)N2C1 [PP1438] |  |  |  | 9.26 | 7.05 |  |  | A (a compound having 10 or more and less than 20 is denoted as A) | AA (a compound having 20 or more is denoted as AA) |
| CCC[C@H]1C(=O)N[C@@H]([C@@H](C)CC)C(=O)N(C)CC(=O)N(C)[C@H]2C/C=C\CCN(C2=O)[C@@H](Cc2ccc(C)cc2)C(=O)N(C)CC(=O)N[C@@H](CCc2ccc(C(F)(F)F)c(Cl)c2)C(=O)N2CC[C@H](OC)[C@H]2C(=O)N(C)C2(CCC2)C(=O)N(C)[C@@H](C2CCCC2)C(=O)N(C)[C@H](C(=O)N(C)C)CC(=O)N1C [PP3237] | 10.24 | 8.21 |  |  |  | B (a compound having 3 or more and less than 10 is denoted as B) | A (a compound having 10 or more and less than 20 is denoted as A) |  |  |
| CCO[C@@H]1C[C@H]2C(=O)NC3(CCC3)C(=O)N(C)[C@@H](C3CCCC3)C(=O)N(C)[C@H](C(=O)N3CCCC3)CC(=O)N(C)[C@@H](CC)C(=O)N[C@@H]([C@@H](C)CC)C(=O)N(C)CC(=O)N(C)[C@H]3C/C=C\CCN(C3=O)[C@@H](CC3CCCCC3)C(=O)N(C)CC(=O)N[C@@H](CCc3cc(F)c(C(F)(F)F)c(F)c3)C(=O)N2C1 [PP1443] |  |  |  | 9.82 | 7.46 |  |  | A (a compound having 10 or more and less than 20 is denoted as A) | AA (a compound having 20 or more is denoted as AA) |
| CCOC[C@H]1C(=O)N[C@@H]([C@@H](C)CC)C(=O)N(C)CC(=O)N(C)[C@H]2C/C=C\CCN(C2=O)[C@@H](CC2CCC(F)(F)CC2)C(=O)N(C)CC(=O)N[C@@H](CCc2ccc(C(F)(F)F)c(Cl)c2)C(=O)N2C[C@@H](C)C[C@H]2C(=O)NC2(CC(C)(C)C2)C(=O)N(C)[C@@H](C(CC)CC)C(=O)N(C)[C@H](C(=O)N(C)C)CC(=O)N1C [PP2475] |  | 6.76 | 8.82 |  |  | A (a compound having 10 or more and less than 20 is denoted as A) | AA (a compound having 20 or more is denoted as AA) |  |  |
| CCO[C@@H]1C[C@H]2C(=O)NC3(CCC3)C(=O)N(C)[C@@H](C3CCCC3)C(=O)N(C)[C@H](C(=O)N(C)C)CC(=O)N(C)[C@@H](Cc3ccc(C#N)cc3)C(=O)N[C@@H]([C@@H](C)CC)C(=O)N(C)CC(=O)N(C)[C@H]3CCCCCN(C3=O)[C@@H](Cc3ccc(F)cc3)C(=O)N(C)CC(=O)N[C@@H](CCc3cc(F)c(C(F)(F)F)c(F)c3)C(=O)N2C1 [PP1157] |  |  |  | 10.21 | 7.52 |  |  | B (a compound having 3 or more and less than 10 is denoted as B) | B (a compound having 3 or more and less than 10 is denoted as B) |
| CCO[C@@H]1C[C@H]2C(=O)NC3(CC(C)(C)C3)C(=O)N(C)[C@@H](C(CC)CC)C(=O)N(C)[C@H](C(=O)N(C)C)CC(=O)N(C)[C@@H](COC)C(=O)N[C@@H]([C@@H](C)CC)C(=O)N(C)CC(=O)N(C)[C@H]3C/C=C\CCN(C3=O)[C@@H](CC3CCCCC3)C(=O)N(C)CC(=O)N[C@@H](CCc3ccc(C(F)(F)F)c(Cl)c3)C(=O)N2C1 [PP2468] |  | 7.14 | 8.89 |  |  | A (a compound having 10 or more and less than 20 is denoted as A) | AA (a compound having 20 or more is denoted as AA) |  |  |
| CCC[C@H]1C(=O)N[C@@H](C2CCCC2)C(=O)N(C)CC(=O)N(C)[C@H]2C/C=C\CCN(C2=O)[C@@H](Cc2ccc(C)cc2)C(=O)N(C)CC(=O)N[C@@H](CCc2ccc(C(F)(F)F)c(Cl)c2)C(=O)N2CC3(CC3)C[C@H]2C(=O)NC2(CCC2)C(=O)N(C)[C@@H]([C@@H](C)CC)C(=O)N(C)[C@H](C(=O)N(C)C)CC(=O)N1C [PP3434] | 9.12 | 7.57 |  |  |  | A (a compound having 10 or more and less than 20 is denoted as A) | A (a compound having 10 or more and less than 20 is denoted as A) |  |  |

Continued, in another order:

| pKd ([1]; Single Cycle Kinetics) | pIC50 ([3]; NCI-H441 cells, 4 days) | pKd ([1]; 1:1 binding model) | pKd [1, 6] | pIC50 [3, 9] | SMILES | HRAS /KRAS (HRAS wild-type protein; [4]) | NRAS /KRAS [2, 5] | HRAS /KRAS (HRAS wild-type protein; [7]) | NRAS /KRAS [2, 8] |
| --- | --- | --- | --- | --- | --- | --- | --- | --- | --- |
|  | 7.70 | 9.36 |  |  | CCO[C@@H]1C[C@H]2C(=O)NC3(CC(C)(C)C3)C(=O)N(C)[C@@H](C(CC)CC)C(=O)N(C)[C@H](C(=O)N(C)C)CC(=O)N(C)[C@@H](COC)C(=O)N[C@@H]([C@@H](C)CC)C(=O)N(C)CC(=O)N(C)[C@H]3C/C=C\CCN(C3=O)[C@@H](CC3CCC(F)(F)CC3)C(=O)N(C)CC(=O)N[C@@H](CCc3cc(F)c(C(F)(F)F)c(F)c3)C(=O)N2C1 [PP2440] | A (a compound having 10 or more and less than 20 is denoted as A) | A (a compound having 10 or more and less than 20 is denoted as A) |  |  |
| 9.82 | 8.03 |  |  |  | CCC[C@H]1C(=O)N[C@@H]([C@@H](C)CC)C(=O)N(C2CC2)CC(=O)N(C)[C@H]2C/C=C\CCN(C2=O)[C@@H](Cc2ccc(C)cc2)C(=O)N(C)CC(=O)N[C@@H](CCc2cc(F)c(C(F)(F)F)c(F)c2)C(=O)N2CC[C@H](OC)[C@H]2C(=O)N(C)C2(CCC2)C(=O)N(C)[C@@H](C2CCCC2)C(=O)N(C)[C@H](C(=O)N(C)C)CC(=O)N1C [PP3285] | A (a compound having 10 or more and less than 20 is denoted as A) | A (a compound having 10 or more and less than 20 is denoted as A) |  |  |
|  |  |  | 9.46 | 7.50 | CCO[C@@H]1C[C@H]2C(=O)NC3(CCC3)C(=O)N(C)[C@@H](C3CCCC3)C(=O)N(C)[C@H](C(=O)N3CCOCC3)CC(=O)N(C)[C@@H](CC3CCCCC3)C(=O)N[C@@H]([C@@H](C)CC)C(=O)N(C)CC(=O)N(C)[C@H]3C/C=C\CCN(C3=O)[C@@H](Cc3ccc(C)cc3)C(=O)N(C)CC(=O)N[C@@H](CCc3cc(F)c(C(F)(F)F)c(F)c3)C(=O)N2C1 [PP1420] |  |  | A (a compound having 10 or more and less than 20 is denoted as A) | A (a compound having 10 or more and less than 20 is denoted as A) |
|  | 7.32 | 9.06 |  |  | CCC[C@H]1C(=O)N[C@@H]([C@@H](C)CC)C(=O)N(C2CC2)CC(=O)N(C)[C@H]2C/C=C\CCN(C2=O)[C@@H](CC2CCC(F)(F)CC2)C(=O)N(C)CC(=O)N[C@@H](CCc2ccc(C(F)(F)F)c(OC)c2)C(=O)N2C[C@@H](C)C[C@H]2C(=O)N(C)C2(CCC2)C(=O)N(C)[C@@H](C2CCCC2)C(=O)N(C)[C@H](C(=O)N(C)C)CC(=O)N1C [PP2378] | A (a compound having 10 or more and less than 20 is denoted as A) | B (a compound having 3 or more and less than 10 is denoted as B) |  |  |
|  |  |  | 10.06 | 8.24 | CCO[C@@H]1C[C@H]2C(=O)NC3(CCCC3)C(=O)N(C)[C@@H](C3CCCC3)C(=O)N(C)[C@H](C(=O)N3CCOCC3)CC(=O)N(C)[C@@H](CC)C(=O)N[C@@H]([C@@H](C)CC)C(=O)N(C)CC(=O)N(C)[C@H]3CC[C@@H](C)CN(C3=O)[C@@H](Cc3ccc(C(F)(F)F)cc3)C(=O)N(C)CC(=O)N[C@@H](CCc3ccc(C(F)(F)F)c(Cl)c3)C(=O)N2C1 [PP1377] |  |  | B (a compound having 3 or more and less than 10 is denoted as B) | B (a compound having 3 or more and less than 10 is denoted as B) |
